Data set [1] addresses T1, PAR4 (Homo sapiens, UniProt Q96RI0).
T1 construct: PRP was isolated by centrifugation at 170 g for 14 minutes and platelets were further pelleted; from tissue; host or cells: human washed platelets
T1 sequence (Q96RI0 18-385): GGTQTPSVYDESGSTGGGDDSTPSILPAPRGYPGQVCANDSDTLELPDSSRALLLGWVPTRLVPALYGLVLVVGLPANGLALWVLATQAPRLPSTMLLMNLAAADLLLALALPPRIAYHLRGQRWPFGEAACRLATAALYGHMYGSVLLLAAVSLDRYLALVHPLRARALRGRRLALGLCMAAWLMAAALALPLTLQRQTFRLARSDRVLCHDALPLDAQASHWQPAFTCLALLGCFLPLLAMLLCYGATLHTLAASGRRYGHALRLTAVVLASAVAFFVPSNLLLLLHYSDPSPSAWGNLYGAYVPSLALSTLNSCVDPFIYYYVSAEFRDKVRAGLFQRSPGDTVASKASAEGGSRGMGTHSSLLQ
The experiment in a line: washed platelet aggregation assay (PAR4 agonist peptides). It is filed as cell-based. As to conditions: washed platelets. Here is the method:
Human blood was collected in ACD (85 mM tri-sodium citrate, 78 mM citric acid, 110 mM D-glucose, pH 4.4) at a ratio of 1.4 ml per 10 ml blood. PRP was isolated by centrifugation at 170 g for 14 minutes and platelets were further pelleted by centrifugation at 1300 g for 6 minutes. Platelets were washed once with 10 ml ACD containing 1 mg/ml bovine serum albumin Platelets were resuspended at ˜2.5×10^8/ml in Tyrode's Buffer (137 mM NaCl, 2 mM KCl, 1.0 mM MgCl2, 1 mM CaCl2, 5 mM glucose, 20 mM HEPES pH 7.4).

The target in data set [2] is T2, PAR1 (Homo sapiens, UniProt P25116).
T2 construct: host or cells: ACS patients (clinical trial)
T2 sequence (P25116 22-425): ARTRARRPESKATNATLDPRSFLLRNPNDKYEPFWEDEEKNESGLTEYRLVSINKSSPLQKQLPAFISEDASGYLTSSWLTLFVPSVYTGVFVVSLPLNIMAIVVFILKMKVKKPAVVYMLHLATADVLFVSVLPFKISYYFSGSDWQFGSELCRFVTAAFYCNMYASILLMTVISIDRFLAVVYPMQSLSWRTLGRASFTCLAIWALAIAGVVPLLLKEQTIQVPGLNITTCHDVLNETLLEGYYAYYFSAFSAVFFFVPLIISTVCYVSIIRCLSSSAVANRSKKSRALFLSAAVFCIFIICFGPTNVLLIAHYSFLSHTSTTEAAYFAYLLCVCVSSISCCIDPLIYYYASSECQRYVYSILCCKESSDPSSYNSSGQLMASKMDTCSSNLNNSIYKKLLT
As to conditions: ACS patients, phase III; cited from earlier work.

Data set [3] concerns the target T3, protease-activated receptor type 4 (PAR4) (Homo sapiens, UniProt Q96RI0).
T3 sequence (Q96RI0 18-385): T1 sequence (Q96RI0 18-385)
Conditions: quoted from the abstract; cited from earlier work.

The EC50 is the concentration needed to bring the measured effect to its halfway point.

For `C[C@H](N)C(=O)N[C@@H](Cc1ccc(O)cc1)C(=O)N1CCC[C@H]1C(=O)NCC(=O)N[C@@H](CCCCN)C(=O)N[C@@H](Cc1ccccc1)C(=O)O` [AYPGKF], in data set [1], the EC50 came to 12 µM. Regarding `CCOC(=O)N[C@@H]1CC[C@@H]2[C@@H](C1)C[C@H]1C(=O)O[C@H](C)[C@H]1[C@H]2/C=C/c1ccc(-c2cccc(F)c2)cn1` [vorapaxar], in data set [2], the cardiovascular events result is “did not significantly reduce” and the “risk of major bleeding” value is on record as “significantly increased”.

Take `CCOC(=O)c1ccc(-c2nn(Cc3ccccc3)c3ccccc23)cc1` [ethyl 4-(1-benzyl-1H-indazol-3-yl)benzoate]: the “inhibition of PAR4-dependent platelet activation” value in data set [3] is “selective and potent inhibitor”.

The record behind these values is patent US9598419B1, “Imidazotriazine and imidazodiazine compounds” (Universite de Montreal, priority 2014, dated 2017).
